Patent US9353150B2, “Substituted pyrazino[1′,2′:1 ,5]pyrrolo[2,3-b]-indole-1,4-diones for cancer treatment” (Massachusetts Institute of Technology, priority 2012, dated 2016)
Like-named read-outs stand apart in the source and are kept apart here.

Legend:
[1] = test system: U-937 (hystiocytic lymphoma); assay: 72-hour IC50 determination for non-adherent cells using MTS; type: cell-based, human
Description: (§1) Certain synthesized compounds were screened for their ability to induce death in two human cancer cell lines: U-937 (leukemic monocyte lymphoma) and HeLa (cervical cancer).
(§2) Cells were grown in media supplemented with fetal bovine serum (FBS) and antibiotics ([…]). Specifically, experiments were performed using the following cell lines and media compositions: U-937, HeLa, H460, and 786-O (RPMI-1640+10% FBS), and MCF7 (EMEM+10% FBS). Cells were incubated at 37° C. in a 5% CO2, 95% humidity atmosphere.
(§3) In a 96-well plate, compounds were pre-added as DMSO stocks in triplicate to achieve a final concentration of 1%. DMSO and cell-free wells served as the live and dead control, respectively. U-937 (5,000 cells/well) cells were distributed in 100 μL media to the compound-containing plate. After 72 hours, cell viability was assessed by adding 20 μL of a PMS/MTS solution (Cory, A. H.; Owen, T. C.; Barltrop, J. A.; Cory, J. G. Cancer Commun. 1991, 3, 207) to each well, allowing the dye to develop at 37° C. until the live control had processed MTS, and reading the absorbance at λ=490 nm. IC50 values were determined from three or more independent experiments using TableCurve (San Jose, Calif.).

786-O (renal carcinoma) = assay: 72-hour IC50 determination for adherent cells using sulforhodamine B (SRB); type: cell-based, human; conditions: error is standard deviation of the mean, n ≧ 3, read-out: 786-O, 72-hour IC50 (Table E1-2)
Description: (§4) Certain provided compounds were tested in culture against a panel of three supplementary human cancer cell lines representing three additional tumor histologies (H460, lung carcinoma; 786-O, renal carcinoma; MCF-7, breast carcinoma). As shown in Table E1-2, the ETPs retain their potency across the cell lines. In some embodiments, a provided compound is active in all cell lines. In some embodiments, a provide compound can be used to selectively target certain cells and/or cancers. […] Without the intention to be limited, Applicant notes that certain cell lines could be more sensitive to provided compounds; for example, U-937 and HeLa are slightly more sensitive to the ETPs than the other three cell lines.
as §2
(§5) Adherent cells (HeLa, H460, 786-O, and MCF7) were added into 96-well plates (5,000 cells/well for HeLa cell line; 2,000 cells/well for H460, 786-O, and MCF7 cell lines) in 100 μL media and were allowed to adhere for 2-3 hours. Compounds were solubilized in DMSO as 100× stocks, added directly to the cells (100 μL final volume), and tested over a range of concentrations in triplicate (1% DMSO final) on a half-log scale. Concentrations tested ranged from […] to 10 μM, depending on the potency of the compound. DMSO and cell-free wells served as the live and dead control, respectively. After 72 hours of continuous exposure, the plates were evaluated using the SRB colorimetric assay as described previously (Vichai, V.; Kirtikara, K. Nature Prot. 2006, 1, 1112). Briefly, media was removed from the plate, and cells were fixed by the addition of 100 μL cold 10% trichloroacetic acid in water. After incubating at 4° C. for an hour, the plates were washed in water and allowed to dry. Sulforhodamine B was added as a 0.057% solution in 1% acetic acid (100 μL), and the plates were incubated at room temperature for 30 minutes, washed in 1% acetic acid, and allowed to dry. The dye was solubilized by adding 10 mM Tris base solution (pH 10.5, 200 μL) and incubating at room temperature for 30 minutes. Plates were read at λ=510 nm. IC50 values were determined from three or more independent experiments using TableCurve (San Jose, Calif.).

MCF-7 (breast carcinoma) = assay: as above; type: cell-based, human; conditions: error is standard deviation of the mean, n ≧ 3, read-out: MCF-7, 72-hour IC50 (Table E1-2)
Description: as §4, §2, §5

H460 (lung carcinoma) = assay: as above; type: cell-based, human; conditions: error is standard deviation of the mean, n ≧ 3, read-out: H460, 72-hour IC50 (Table E1-2)
Description: as §4, §2, §5

human cancer cell lines = assay: Anticancer activity in human cancer cell lines, not tied to one cell line; type: cell-based; conditions: for anticancer activity, in words: human cancer cell lines, 72-hour exposure
Description: as §1, §4, §5, §3

[2] = test system: HeLa (cervical carcinoma); assay: 72-hour IC50 determination for adherent cells using sulforhodamine B (SRB); type: cell-based, human
Description: as §1, §2, §5

[3] = Stability observed on isolation (concentration / solution); conditions: observed during isolation and characterization
[4] = Homo sapiens, U-937, 72-hour exposure, MTS, error is standard deviation of the mean, n ≧ 3, read-out: U-937, 72-hour IC50 (Table E1-1)
[5] = Homo sapiens, U-937, 72-hour exposure, MTS, error is standard deviation of the mean, n ≧ 3, read-out: U-937, 72-hour IC50 (Table E1-2)
[6] = Homo sapiens, 786-0, 72-hour exposure
[7] = Homo sapiens, MCF7, 72-hour exposure
[8] = Homo sapiens, NCI-H460, 72-hour exposure
[9] = Homo sapiens, HeLa, 72-hour exposure, SRB, error is standard deviation of the mean, n ≧ 3, read-out: HeLa, 72-hour IC50 (Table E1-1)
[10] = Homo sapiens, HeLa, 72-hour exposure, SRB, error is standard deviation of the mean, n ≧ 3, read-out: HeLa, 72-hour IC50 (Table E1-2)
[11] = 72-hour exposure, MTS, error is standard deviation of the mean, n ≧ 3, read-out: U-937, 72-hour IC50 (Table E1-1)
[12] = 72-hour exposure, MTS, error is standard deviation of the mean, n ≧ 3, read-out: U-937, 72-hour IC50 (Table E1-2)
[13] = 72-hour exposure, SRB, error is standard deviation of the mean, n ≧ 3, read-out: HeLa, 72-hour IC50 (Table E1-1)
[14] = 72-hour exposure, SRB, error is standard deviation of the mean, n ≧ 3, read-out: HeLa, 72-hour IC50 (Table E1-2)

SMILES	IC50 [1, 4] [nM]	IC50 [1, 5] [nM]	IC50 (786-O (renal carcinoma); [6]) [nM]	IC50 (MCF-7 (breast carcinoma); [7]) [nM]	IC50 (H460 (lung carcinoma); [8]) [nM]	anticancer activity, in words (human cancer cell lines)	IC50 [2, 9] [nM]	IC50 [2, 10] [nM]	IC50 [1, 11] [nM]	IC50 [1, 12] [nM]	IC50 (786-O (renal carcinoma); 72-hour exposure) [nM]	IC50 (MCF-7 (breast carcinoma); 72-hour exposure) [nM]	IC50 (H460 (lung carcinoma); 72-hour exposure) [nM]	IC50 [2, 13] [nM]	IC50 [2, 14] [nM]	further results
CN1C(=O)[C@@]23C[C@]4([C@]56C[C@@]78SSSS[C@@](CO)(C(=O)N7[C@H]5Nc5ccccc56)N(C)C8=O)c5ccccc5N[C@@H]4N2C(=O)[C@]1(CO)SSSS3 [Compound 6, (+)-12,12′-dideoxychetracin A]	1.3 ± 0.5	1.3 ± 0.5	16 ± 2.4	22.5 ± 6	39.3 ± 41	active across the board	5.6 ± 1	5.6 ± 1								IC50 ([1]; Homo sapiens, U-937, 72-hour exposure, read-out: IC50 (U-937)): 0.75 to 1.3 nM; IC50 ([2]; Homo sapiens, HeLa, 72-hour exposure, read-out: IC50 (HeLa)): 5.6 to 6.9 nM
CN1C(=O)[C@]23C[C@]4(F)c5ccccc5N(S(=O)(=O)c5ccccc5)[C@@H]4N2C(=O)[C@H]1SS3 [Compound 35, C3-Fluoro epidithiodiketopiperazines]						intermediately good activity			21.3 ± 8.7	21.3 ± 8.7	64 ± 20	93 ± 34	123 ± 50	56 ± 21	56 ± 21	
CN1C(=O)[C@@]23C[C@]4(c5c[nH]c6ccccc56)c5ccccc5N(S(=O)(=O)c5ccccc5)[C@@H]4N2C(=O)[C@@H]1SSSS3 [Compound 28, C3-(Indol-3′-yl) epitetrathiodiketopiperazine]	8.3 ± 3.3	8.3 ± 3.3	344 ± 20	309 ± 31	277 ± 43		137 ± 86	137 ± 86								stability upon concentration or in solution [3]: instability in solution
COc1ccc([C@]23C[C@@]45SS[C@@H](C(=O)N4[C@H]2N(S(=O)(=O)c2ccccc2)c2ccccc23)N(C)C5=O)cc1 [Compound 33, C3-(p-Methoxyphenyl)epidithiodiketopiperazine]			83 ± 18	63 ± 16	46.7 ± 5.3											IC50 ([1]; Homo sapiens, U-937, 72 h, read-out: IC50 (U-937)): 2.8 to 14.8 nM; IC50 ([1]; Homo sapiens, U-937, 72 h, read-out: U-937, 72-hour IC50 (Table E1-1)): 5 ± 2.1 nM; IC50 ([1]; Homo sapiens, U-937, 72 h, read-out: U-937, 72-hour IC50 (Table E1-2)): 5 ± 2.1 nM; change in activity across cell lines (human cancer cell lines; five cell lines of Table E1-2): 4 fold; IC50 ([2]; Homo sapiens, HeLa, 72 h, read-out: HeLa, 72-hour IC50 (Table E1-1)): 22.2 ± 10.9 nM; IC50 ([2]; Homo sapiens, HeLa, 72 h, read-out: HeLa, 72-hour IC50 (Table E1-2)): 22.2 ± 10.9 nM; IC50 ([2]; Homo sapiens, HeLa, 72 h, read-out: IC50 (HeLa)): 22 to 75 nM
CN1C(=O)C23CC4(c5c[nH]c6ccccc56)c5ccccc5N(S(=O)(=O)c5ccccc5)C4N2C(=O)C1(C)SC(=S)S3 (stereo not shown) [Compound 64, C3-(Indo-3′-v)dithiepanethiones]						competent anticancer agents			24 ± 12	24 ± 12	266 ± 85	210 ± 73	222 ± 72	25.3 ± 2	25.3 ± 2	
CN1C(=O)[C@@]23C[C@]4(Br)c5ccccc5N(S(=O)(=O)c5ccccc5)[C@@H]4N2C(=O)[C@@H]1SS3 [Compound 30, C3-Bromo epidithiodiketopiperazines]						intermediately good activity			5 ± 1.3	5 ± 1.3	162 ± 35	152 ± 42	277 ± 44	44.9 ± 1.3	44.9 ± 1.3	
